The results in this text go back to ChEMBL document CHEMBL3817786, “An Unusual Natural Product Primary Sulfonamide: Synthesis, Carbonic Anhydrase Inhibition, and Protein X-ray Structures of Psammaplin C” (J Med Chem, 2016).

By Ki is commonly meant a dissociation constant, usually derived from enzyme kinetics or from competition with a known ligand.

One test deals with Carbonic anhydrase 14 (Homo sapiens, UniProt Q9ULX7). Put plainly: Inhibition of human recombinant carbonic anhydrase 14 expressed in Escherichia coli BL21 (DE3) by stopped-flow CO2 hydration assay.
Sequence of Carbonic anhydrase 14 (Q9ULX7 whole entry): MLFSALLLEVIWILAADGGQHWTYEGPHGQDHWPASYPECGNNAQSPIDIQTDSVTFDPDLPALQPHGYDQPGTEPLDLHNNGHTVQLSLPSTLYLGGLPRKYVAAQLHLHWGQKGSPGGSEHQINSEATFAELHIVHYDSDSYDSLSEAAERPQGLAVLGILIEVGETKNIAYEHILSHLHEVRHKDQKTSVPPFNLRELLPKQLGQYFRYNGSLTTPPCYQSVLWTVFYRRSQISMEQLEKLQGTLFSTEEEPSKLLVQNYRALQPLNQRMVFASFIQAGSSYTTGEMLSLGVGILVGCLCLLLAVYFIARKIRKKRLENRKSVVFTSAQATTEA
Another test has as its target Carbonic anhydrase 6 (Homo sapiens, UniProt P23280). Put plainly: Inhibition of human recombinant carbonic anhydrase 6 expressed in Escherichia coli BL21 (DE3) by stopped-flow CO2 hydration assay.
The target in another test is Carbonic anhydrase 13 (Homo sapiens, UniProt Q8N1Q1). The test can be described thus: Inhibition of human recombinant carbonic anhydrase 13 expressed in Escherichia coli BL21 (DE3) by stopped-flow CO2 hydration assay.
Sequence of Carbonic anhydrase 13 (Q8N1Q1 whole entry): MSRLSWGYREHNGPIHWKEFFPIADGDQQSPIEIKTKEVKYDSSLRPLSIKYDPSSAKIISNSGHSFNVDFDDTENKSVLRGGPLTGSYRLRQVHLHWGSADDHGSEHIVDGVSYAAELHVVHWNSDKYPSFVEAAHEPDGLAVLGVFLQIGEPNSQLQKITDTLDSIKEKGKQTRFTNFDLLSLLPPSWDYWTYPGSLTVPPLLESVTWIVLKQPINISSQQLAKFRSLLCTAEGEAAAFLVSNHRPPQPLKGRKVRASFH
Another test has as its target Carbonic anhydrase 4 (Homo sapiens, UniProt P22748). Put plainly: Inhibition of human recombinant carbonic anhydrase 4 expressed in Escherichia coli BL21 (DE3) by stopped-flow CO2 hydration assay.
For another test, the target named is Carbonic anhydrase 7 (Homo sapiens, UniProt P43166). Put plainly: Inhibition of human recombinant carbonic anhydrase 7 expressed in Escherichia coli BL21 (DE3) by stopped-flow CO2 hydration assay.
Sequence of Carbonic anhydrase 7 (P43166 whole entry): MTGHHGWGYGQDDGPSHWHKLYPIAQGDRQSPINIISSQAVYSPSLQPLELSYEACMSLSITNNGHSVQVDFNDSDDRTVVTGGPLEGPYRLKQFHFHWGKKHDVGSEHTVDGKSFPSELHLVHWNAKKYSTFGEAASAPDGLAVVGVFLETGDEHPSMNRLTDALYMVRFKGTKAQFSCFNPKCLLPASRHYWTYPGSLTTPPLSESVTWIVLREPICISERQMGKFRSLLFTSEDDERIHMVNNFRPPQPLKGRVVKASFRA
The target in test [1] is Carbonic anhydrase 5A, mitochondrial (Homo sapiens, UniProt P35218). Put plainly: Inhibition of human recombinant carbonic anhydrase 5A expressed in Escherichia coli BL21 (DE3) by stopped-flow CO2 hydration assay.
Sequence of Carbonic anhydrase 5A, mitochondrial (P35218 whole entry): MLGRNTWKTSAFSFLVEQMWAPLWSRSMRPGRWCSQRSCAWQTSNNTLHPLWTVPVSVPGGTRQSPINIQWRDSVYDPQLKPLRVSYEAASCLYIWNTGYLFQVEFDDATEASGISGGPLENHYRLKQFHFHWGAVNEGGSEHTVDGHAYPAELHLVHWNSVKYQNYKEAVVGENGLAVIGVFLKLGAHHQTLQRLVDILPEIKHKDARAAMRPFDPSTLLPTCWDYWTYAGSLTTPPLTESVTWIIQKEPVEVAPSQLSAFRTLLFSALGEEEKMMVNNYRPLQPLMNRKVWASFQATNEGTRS

Sequence of Carbonic anhydrase 4 (P22748 whole entry): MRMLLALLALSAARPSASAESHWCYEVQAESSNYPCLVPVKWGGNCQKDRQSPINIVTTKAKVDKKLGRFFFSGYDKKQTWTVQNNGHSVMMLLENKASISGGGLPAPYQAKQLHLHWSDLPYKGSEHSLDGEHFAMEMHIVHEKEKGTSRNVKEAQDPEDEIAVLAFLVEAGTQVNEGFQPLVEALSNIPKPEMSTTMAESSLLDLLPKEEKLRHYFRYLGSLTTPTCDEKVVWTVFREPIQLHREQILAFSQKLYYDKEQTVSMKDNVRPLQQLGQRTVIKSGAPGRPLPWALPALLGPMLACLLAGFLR
Sequence of Carbonic anhydrase 6 (P23280 whole entry): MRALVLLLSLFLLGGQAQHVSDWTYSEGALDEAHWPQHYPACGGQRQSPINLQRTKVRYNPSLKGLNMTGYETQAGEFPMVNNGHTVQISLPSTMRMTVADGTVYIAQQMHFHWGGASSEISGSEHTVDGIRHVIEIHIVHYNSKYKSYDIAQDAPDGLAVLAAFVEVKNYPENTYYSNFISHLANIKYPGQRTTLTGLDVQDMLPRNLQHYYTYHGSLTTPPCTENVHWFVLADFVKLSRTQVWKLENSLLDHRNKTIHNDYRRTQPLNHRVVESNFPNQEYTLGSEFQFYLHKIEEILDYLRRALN

Take `NS(=O)(=O)CCNC(=O)/C(Cc1ccc(O)c(Br)c1)=N/O`: the Ki amounted to 0.379 µM on Carbonic anhydrase 14; 9.68 µM on Carbonic anhydrase 6; 10.6 µM at Carbonic anhydrase 13; 0.0753 µM at Carbonic anhydrase 4; 0.0017 µM on Carbonic anhydrase 7; 0.154 µM in test [1].
